# Assays:
# Proteus mirabilis = assay: Antibacterial activity against Proteus mirabilis 09-1 by agar dilution method; assay type: functional
# Klebsiella aerogenes = assay: Antibacterial activity against Enterobacter aerogenes 45102 by agar dilution method; assay type: functional
# Enterococcus faecium [1] = assay: Antibacterial activity against vancomycin-resistant Enterococcus faecium 05-8 by agar dilution method; assay type: functional
# Staphylococcus aureus [2] = assay: Antibacterial activity against methicillin-resistant Staphylococcus aureus 09-13 by agar dilution method; assay type: functional
# [3] = tested on: Staphylococcus epidermidis; assay: Antibacterial activity against methicillin-resistant Staphylococcus epidermidis 09-3 by agar dilution method; assay type: functional
# Pseudomonas aeruginosa [4] = assay: Antibacterial activity against Pseudomonas aeruginosa 09-14 by agar dilution method; assay type: functional
# Escherichia coli [5] = assay: Antibacterial activity against extended-spectrum beta-lactamase-positive Escherichia coli 09-1 by agar dilution method; assay type: functional
# Pseudomonas aeruginosa [6] = assay: Antibacterial activity against Pseudomonas aeruginosa ATCC 27853 by agar dilution method; assay type: functional
# Klebsiella pneumoniae [7] = assay: Antibacterial activity against extended-spectrum beta-lactamase-negative Klebsiella pneumoniae 09-8 by agar dilution method; assay type: functional
# Salmonella typhi = assay: Antibacterial activity against Salmonella typhi H901 by agar dilution method; assay type: functional, Salmonella enterica subsp. enterica serovar Typhi; conditions: Salmonella enterica
# Staphylococcus aureus [8] = assay: Antibacterial activity against methicillin-sensitive Staphylococcus aureus 09-6 by agar dilution method; assay type: functional
# Enterobacter cloacae = assay: Antibacterial activity against Enterobacter cloacae 45301 by agar dilution method; assay type: functional
# Enterococcus faecium [9] = assay: Antibacterial activity against vancomycin-resistant Enterococcus faecium ATCC 700221 by agar dilution method; assay type: functional
# Staphylococcus aureus [10] = assay: Antibacterial activity against methicillin-resistant Staphylococcus aureus ATCC 33591 by agar dilution method; assay type: functional
# Enterococcus faecalis [11] = assay: Antibacterial activity against vancomycin-sensitive Enterococcus faecalis ATCC 29212 by agar dilution method; assay type: functional
# Serratia marcescens = assay: Antibacterial activity against Serratia marcescens 41002 by agar dilution method; assay type: functional
# Citrobacter freundii = assay: Antibacterial activity against Citrobacter freundii ATCC 43864 by agar dilution method; assay type: functional
# Escherichia coli [12] = assay: Antibacterial activity against extended-spectrum beta-lactamase-negative Escherichia coli ATCC 25922 by agar dilution method; assay type: functional
# Pseudomonas aeruginosa [13] = assay: Antibacterial activity against Pseudomonas aeruginosa PAO1 by agar dilution method; assay type: functional
# Enterococcus faecalis [14] = assay: Antibacterial activity against vancomycin-resistant Enterococcus faecalis 09-9 by agar dilution method; assay type: functional
# Morganella morganii = assay: Antibacterial activity against Morganella morganii ATCC 25830 by agar dilution method; assay type: functional
# Klebsiella pneumoniae [15] = assay: Antibacterial activity against Klebsiella pneumoniae ATCC BAA-2146 expressing NDM-1 by agar dilution method; assay type: functional
# Enterococcus faecalis [16] = assay: Antibacterial activity against vancomycin-resistant Enterococcus faecalis ATCC 51299 by agar dilution method; assay type: functional
# Staphylococcus aureus [17] = assay: Antibacterial activity against methicillin-sensitive Staphylococcus aureus ATCC 29213 by agar dilution method; assay type: functional
# Klebsiella pneumoniae [18] = assay: Antibacterial activity against extended-spectrum beta-lactamase-negative Klebsiella pneumoniae 7 by agar dilution method; assay type: functional
# Escherichia coli [19] = assay: Antibacterial activity against extended-spectrum beta-lactamase-negative Escherichia coli 1515 by agar dilution method; assay type: functional
# [20] = tested on: Acinetobacter calcoaceticus; assay: Antibacterial activity against Acinetobacter calcoaceticus ATCC 19606 by agar dilution method; assay type: functional
# Enterococcus faecalis [21] = assay: Antibacterial activity against vancomycin-sensitive Enterococcus faecalis 09-8 by agar dilution method; assay type: functional
# Klebsiella pneumoniae [22] = assay: Antibacterial activity against extended-spectrum beta-lactamase-positive Klebsiella pneumoniae ATCC 700603 by agar dilution method; assay type: functional
# Enterococcus faecium [23] = assay: Antibacterial activity against vancomycin-sensitive Enterococcus faecium 09-10 by agar dilution method; assay type: functional
# Proteus vulgaris = assay: Antibacterial activity against Proteus vulgaris ATCC 29905 by agar dilution method; assay type: functional
# [24] = tested on: Staphylococcus epidermidis; assay: Antibacterial activity against methicillin-sensitive Staphylococcus epidermidis ATCC 12228 by agar dilution method; assay type: functional
# Escherichia coli [25] = assay: Antibacterial activity against extended-spectrum beta-lactamase-negative Escherichia coli 09-20 by agar dilution method; assay type: functional
# [26] = tested on: Staphylococcus epidermidis; assay: Antibacterial activity against methicillin-sensitive Staphylococcus epidermidis 09-9 by agar dilution method; assay type: functional
# [27] = Cytotoxicity against HEK293T cells after 48 hrs by MTS assay; assay type: cell-based, HEK-293T; conditions: human
# Klebsiella pneumoniae [28] = assay: Antibacterial activity against extended-spectrum beta-lactamase-positive Klebsiella pneumoniae 09-25 by agar dilution method; assay type: functional
# Staphylococcus aureus [29] = assay: Antibacterial activity against methicillin-sensitive Staphylococcus aureus 15 by agar dilution method; assay type: functional
# Providencia rettgeri = assay: Antibacterial activity against Providencia rettgeri ATCC 31052 by agar dilution method; assay type: functional
SMILES,MIC (Proteus mirabilis),MIC (Klebsiella aerogenes),MIC (Enterococcus faecium [1]),MIC (Staphylococcus aureus [2]),MIC [3],MIC (Pseudomonas aeruginosa [4]),MIC (Escherichia coli [5]),MIC (Pseudomonas aeruginosa [6]),MIC (Klebsiella pneumoniae [7]),MIC (Salmonella typhi),MIC (Staphylococcus aureus [8]),MIC (Enterobacter cloacae),MIC (Enterococcus faecium [9]),MIC (Staphylococcus aureus [10]),MIC (Enterococcus faecalis [11]),MIC (Serratia marcescens),MIC (Citrobacter freundii),MIC (Escherichia coli [12]),MIC (Pseudomonas aeruginosa [13]),MIC (Enterococcus faecalis [14]),also measured
N=C(NC1CCC1)c1ccc2cc(-c3ccc(Oc4ccc(-c5cc6ccc(C(=N)NC7CCC7)cc6[nH]5)cc4)cc3)[nH]c2c1,> 128 µg/mL,> 128 µg/mL,> 128 µg/mL,64 µg/mL,16 µg/mL,> 128 µg/mL,> 128 µg/mL,> 128 µg/mL,> 128 µg/mL,> 128 µg/mL,64 µg/mL,> 128 µg/mL,32 µg/mL,64 µg/mL,64 µg/mL,> 128 µg/mL,> 128 µg/mL,> 128 µg/mL,> 128 µg/mL,64 µg/mL,MIC (Morganella morganii): > 128 µg/mL; MIC (Klebsiella pneumoniae [15]): > 128 µg/mL; MIC (Enterococcus faecalis [16]): 64 µg/mL; MIC (Staphylococcus aureus [17]): 64 µg/mL; MIC (Klebsiella pneumoniae [18]): > 128 µg/mL; MIC (Escherichia coli [19]): > 128 µg/mL; MIC [20]: > 128 µg/mL; MIC (Enterococcus faecalis [21]): 64 µg/mL; MIC (Klebsiella pneumoniae [22]): > 128 µg/mL; MIC (Enterococcus faecium [23]): 64 µg/mL; MIC (Proteus vulgaris): > 128 µg/mL; MIC [24]: 8 µg/mL; MIC (Escherichia coli [25]): > 128 µg/mL; MIC [26]: 8 µg/mL; CC50 at 48 h [27]: 32.6 µg/mL; MIC (Klebsiella pneumoniae [28]): > 128 µg/mL; MIC (Staphylococcus aureus [29]): 64 µg/mL; MIC (Providencia rettgeri): > 128 µg/mL
N=C(c1ccc2cc(-c3ccc(Oc4ccc(-c5cc6ccc(C(=N)N7CCOCC7)cc6[nH]5)cc4)cc3)[nH]c2c1)N1CCOCC1,> 128 µg/mL,> 128 µg/mL,8 µg/mL,2 µg/mL,2 µg/mL,> 128 µg/mL,128 µg/mL,> 128 µg/mL,> 128 µg/mL,64 µg/mL,2 µg/mL,> 128 µg/mL,2 µg/mL,2 µg/mL,8 µg/mL,> 128 µg/mL,> 128 µg/mL,32 µg/mL,> 128 µg/mL,16 µg/mL,MIC (Morganella morganii): 16 µg/mL; MIC (Klebsiella pneumoniae [15]): > 128 µg/mL; MIC (Enterococcus faecalis [16]): 4 µg/mL; MIC (Staphylococcus aureus [17]): 2 µg/mL; MIC (Klebsiella pneumoniae [18]): > 128 µg/mL; MIC (Escherichia coli [19]): 128 µg/mL; MIC [20]: > 128 µg/mL; MIC (Enterococcus faecalis [21]): 8 µg/mL; MIC (Klebsiella pneumoniae [22]): > 128 µg/mL; MIC (Enterococcus faecium [23]): 4 µg/mL; MIC (Proteus vulgaris): > 128 µg/mL; MIC [24]: 2 µg/mL; MIC (Escherichia coli [25]): 64 µg/mL; MIC [26]: 2 µg/mL; CC50 at 48 h [27]: 4.9 µg/mL; MIC (Klebsiella pneumoniae [28]): > 128 µg/mL; MIC (Staphylococcus aureus [29]): 1 µg/mL; MIC (Providencia rettgeri): > 128 µg/mL
CC(C)NC(=N)c1ccc2cc(-c3ccc(Oc4ccc(-c5cc6ccc(C(=N)NC(C)C)cc6[nH]5)cc4)cc3)[nH]c2c1,64 µg/mL,64 µg/mL,1 µg/mL,1 µg/mL,1 µg/mL,64 µg/mL,32 µg/mL,64 µg/mL,64 µg/mL,32 µg/mL,1 µg/mL,64 µg/mL,1 µg/mL,1 µg/mL,1 µg/mL,64 µg/mL,64 µg/mL,16 µg/mL,> 128 µg/mL,2 µg/mL,MIC (Morganella morganii): 16 µg/mL; MIC (Klebsiella pneumoniae [15]): 64 µg/mL; MIC (Enterococcus faecalis [16]): 2 µg/mL; MIC (Staphylococcus aureus [17]): 1 µg/mL; MIC (Klebsiella pneumoniae [18]): 64 µg/mL; MIC (Escherichia coli [19]): 32 µg/mL; MIC [20]: 128 µg/mL; MIC (Enterococcus faecalis [21]): 1 µg/mL; MIC (Klebsiella pneumoniae [22]): 64 µg/mL; MIC (Enterococcus faecium [23]): 2 µg/mL; MIC (Proteus vulgaris): 64 µg/mL; MIC [24]: 1 µg/mL; MIC (Escherichia coli [25]): 32 µg/mL; MIC [26]: 1 µg/mL; CC50 at 48 h [27]: 7.3 µg/mL; MIC (Klebsiella pneumoniae [28]): 64 µg/mL; MIC (Staphylococcus aureus [29]): 1 µg/mL; MIC (Providencia rettgeri): 64 µg/mL
N=C(NC1CCCC1)c1ccc2cc(-c3ccc(Oc4ccc(-c5cc6ccc(C(=N)NC7CCCC7)cc6[nH]5)cc4)cc3)[nH]c2c1,> 128 µg/mL,> 128 µg/mL,> 128 µg/mL,64 µg/mL,16 µg/mL,> 128 µg/mL,> 128 µg/mL,> 128 µg/mL,> 128 µg/mL,> 128 µg/mL,128 µg/mL,> 128 µg/mL,≥ 128 µg/mL,64 µg/mL,128 µg/mL,> 128 µg/mL,> 128 µg/mL,> 128 µg/mL,> 128 µg/mL,128 µg/mL,MIC (Morganella morganii): > 128 µg/mL; MIC (Klebsiella pneumoniae [15]): > 128 µg/mL; MIC (Enterococcus faecalis [16]): 128 µg/mL; MIC (Staphylococcus aureus [17]): 128 µg/mL; MIC (Klebsiella pneumoniae [18]): > 128 µg/mL; MIC (Escherichia coli [19]): > 128 µg/mL; MIC [20]: > 128 µg/mL; MIC (Enterococcus faecalis [21]): 128 µg/mL; MIC (Klebsiella pneumoniae [22]): > 128 µg/mL; MIC (Enterococcus faecium [23]): ≥ 128 µg/mL; MIC (Proteus vulgaris): > 128 µg/mL; MIC [24]: 8 µg/mL; MIC (Escherichia coli [25]): > 128 µg/mL; MIC [26]: 8 µg/mL; CC50 at 48 h [27]: 28.9 µg/mL; MIC (Klebsiella pneumoniae [28]): > 128 µg/mL; MIC (Staphylococcus aureus [29]): 128 µg/mL; MIC (Providencia rettgeri): > 128 µg/mL

# Source: ChEMBL document CHEMBL4002623, “Synthesis and in vitro activity of dicationic indolyl diphenyl ethers as novel potent antibiotic agents against drug-resistant bacteria” (Bioorg Med Chem Lett, 2017)
